According to patent publication US8263649B2, “Benzofuran type derivatives, a composition comprising the same for treating or preventing cognitive dysfunction and the use thereof” (Medifron DBT Co., Ltd., priority 2006, dated 2012):

What was measured:
beta amyloid 1-42 = molecular target: T1, beta amyloid 1-42 (Homo sapiens, UniProt P05067); experiment: Inhibition test of beta amyloid aggregation (Thioflavin T fluorescence); assay type: biochemical; conditions: FIG. 1
T1 construct: Synthetic beta amyloid 1-42 (BACHEM); purchased BACHEM; host or cells: synthetic peptide
T1 sequence (P05067 672-713): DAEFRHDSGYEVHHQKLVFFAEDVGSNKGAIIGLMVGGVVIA
Experimental: Synthetic beta amyloid 1-42 (BACHEM) was dissolved in DMSO in order to 250 μm solution and diluted with PBS into 1/10 on fluorescent black plate to induce aggregation. By comparing with inhibition activity of the tanshinone compounds prepared in Example 1 on beta amyloid aggregation, the test sample showing more than 50% inhibition activity at 10 μg/ml was chosen to use and added to react for 1 hour at room temperature. ThT (Thioflavin T) was diluted with 50 mM glycine buffer solution and the diluted solution was added to each well by 150 μl/well. The absorbance was determined by microplate reader (SAFIRE, TECAN) at 450 nm excitation wavelength/480 nm emission wavelength and the inhibition activity of the test sample on beta amyloid aggregation was transformed into IC50.

[1] = system: HT22 mouse neuronal cell line treated with aggregated beta amyloid 25-35; experiment: Inhibition test of beta amyloid toxicity (MTT); assay type: cell-based; conditions: HT22 cells, 25 μm aggregated beta amyloid 25-35, 18 hours
Experimental: To determine the inhibitory activity of the compounds prepared in Examples on beta-amyloid toxicity, following test was performed according to the procedure disclosed in the literature (Gillardon, F. et al., Brain Research, 706(1), pp. 169-172, 1996).
HT22 mouse neuronal cell line was incubated in DMEM (Dulbecco's Modified Eagle's Medium, Gibco-BRL) medium supplemented with 10% FBS (Fetal Bovine Serum, Hyclone) and 1% penicillin/streptomycin (Sigma Co.). Prior to test, HT22 cell was incubated on 96 well plates with a density of 5×10^3 cell/well and further incubated in serum free DMEM medium for 1 hour before the treatment of test sample. Various concentration of compounds prepared in Examples used as a test sample was added thereto and incubated for 1 hour. Aggregated beta amyloid 25-35 (US peptide) was treated thereto to the concentration of 25 μm and incubated for 18 hours to induce cell necrosis. 5 mg/ml of MTT (3-(4,5-dimethyl-2-thiazolyl)-2,5-diphenyl-2H-tetrazolium bromide) solution was added each well with 15 μl/well and the well was incubated for 4 hours. Dissolving buffer solution (10% SDS, 50% dimethyl formamide, pH 4.7) was added to each well with 100 μl/well and reacted for overnight. 18 hours after the reaction, the absorbance of solution was determined by microplate reader (SAFIRE, TECAN) at 570 nm/630 nm wavelength (Gillardon, F. et al., Brain Research, 706(1) pp 169-172, 1996).

melting point | inhibitory effect on the aggregation of beta amyloid (beta amyloid 1-42) | Structure (SMILES) | inhibition effect on beta-amyloid toxicity [1]
70 °C |  | COCCc1ccc2oc(-c3ccc(OCOC)c(OC)c3)c(SC)c2c1 [Compound 14a, 5-(2-methoxy-ethyl)-2-(3-methoxy-4-methoxymethoxy-phenyl)-3-methylsulfanyl-benzofuran] | 
67 °C | potent inhibition effect | COCCc1ccc2oc(-c3ccc(O)c(OC)c3)c(SC)c2c1 [Compound 15a, 2-methoxy-4-[5-(2-methoxy-ethyl)-3-methylsulfanyl-benzofuran-2-yl]-phenol] | potent inhibition effect
 | potent inhibition effect | COCCCc1ccc2oc(-c3ccc(O)c(OC)c3)c(SC)c2c1 [Compound 15b, 2-methoxy-4-[5-(3-methoxy-propyl)-3-methylsulfanyl-benzofuran-2yl]-phenol] | potent inhibition effect
61 °C |  | COCCc1ccc2oc(-c3ccc(OC)c(OC)c3)c(SC)c2c1 [Compound 17a, 2-(3,4-dimethoxy-phenyl)-5-(2-methoxy-ethyl)-3-methylsulfanyl-benzofuran] | 
91 °C |  | COC(=O)Cc1ccc2oc(-c3ccc(OC)c(OC)c3)c(SC)c2c1 [Compound 31a, [2-(3,4-dimethoxy-phenyl)-3-(methylsulfanyl)-benzofuran-5-yl)acetic acid methyl ester] | 
165 °C |  | COc1ccc(-c2oc3ccc(CC(=O)O)cc3c2SC)cc1OC [Compound 33a, [2-(3,4-dimethoxy-phenyl)-3-methylsulfanyl-benzofuran-5-yl]-acetic acid] | 
96 °C |  | COc1ccc(-c2oc3ccc(CCO)cc3c2SC)cc1OC [Compound 39a, 2-[2-(3,4-dimethoxy-phenyl)-3-methylsulfanyl-benzofuran-5-yl]-ethanol] | 
122 °C |  | COc1ccc(-c2cc3cc(CCO)ccc3o2)cc1OC [Compound 40a, 2-[2-(3,4-dimethoxy-phenyl)-benzofuran-5-yl]-ethanol] | 

Further lines, the compound ahead of its results:

Structure (SMILES) | melting point | inhibitory effect on the aggregation of beta amyloid (beta amyloid 1-42) | inhibition effect on beta-amyloid toxicity [1]
COc1ccc(-c2oc3ccc(CC(=O)N4CCN(Cc5ccccc5)CC4)cc3c2SC)cc1OC | 70 °C |  | 
COCCc1ccc2oc(-c3ccc(O)c(OC)c3)cc2c1 [Compound 16a, 2-methoxy-4-[5-(2-methoxy-ethyl)-benzofuran-2yl]-phenol] | 180 °C |  | 
COCCc1ccc2oc(-c3ccc(OC)c(OC)c3)cc2c1 [Compound 18a, 2-(3,4-dimethoxy-phenyl)-5-(2-methoxy-ethyl)-benzofuran] | 81 °C |  | 
COC(=O)Cc1ccc2oc(-c3ccc(OC)c(OC)c3)cc2c1 [Compound 32a, [2-(3,4-dimethoxyphenyl)-benzofuran-5-yl]acetic acid methyl ester] | 119 °C |  | 
COc1ccc(-c2cc3cc(CC(=O)O)ccc3o2)cc1OC [Compound 34a, [2-(3,4-dimethoxy-phenyl)-benzofuran-5-yl]-acetic acid] | 202 °C |  | 
COc1ccc(-c2oc3ccc(CC(=O)N4CCN(c5ccccc5)CC4)cc3c2SC)cc1OC [Compound 37a, 2-[2-(3,4-dimethoxy-phenyl)-3-methylsulfanyl-benzofuran-5-yl)-1-(4-phenyl-piperazin-1-yl)-ethanone] | 160 °C |  | 
